Data taken from US20050282755A1, “Compositions having antimicrobial activity and uses thereof” (priority 2004, published 2005).
≈ marks a conversion by molar mass, not a printed value. Starred links: 1 amine or outer side, 2 acyl side, 3 side chain; linkers in the order of their positions; H or OH if unused. Non-standard residues stand in square brackets, D forms with d. Residues, ends and D or L forms follow the SMILES beside them. *: point of attachment. Ethylenediamine = C(CN[*:2])N[*:1]; Lauroyl = CCCCCCCCCCCC(=O)*; Decanoyl = CCCCCCCCCC(=O)*

Tests used:
Format in all cases: cell-based
[1] = test system: Candida albicans ATCC 18804; test: MIC in yeasts, NCCLS M27-A2 broth microdilution, RPMI 1640 (Table 9, letter e); details: ATCC 18804
Procedure, shortened: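 Broth microdilution per NCCLS M27-A2 in RPMI 1640 with glutamine and phenol red, final inoculum 0.5×10^3–2.5×10^3 CFU/milliliter. Incubated 24 to 48 hours at 37° C; MIC is the lowest peptide concentration with no visible growth.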

[2] = test system: Propionibacterium acnes ATCC 6919; test: MIC, agar dilution method NCCLS M11-A6, Brucella agar, anaerobic (Table 9, superscript c); details: ATCC 6919
Procedure, shortened: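 Agar dilution per NCCLS M11-A6 on Brucella agar; final inoculum 1.5×10^8 CFU/milliliter applied to plates, incubated 48-96 hours at 37° C. under anaerobic (GasPak) conditions. MIC = lowest peptide concentration with no colony growth.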

[3] = test system: Escherichia coli ATCC 25922; test: MIC, NCCLS M7-A6 broth microdilution (Table 9, no superscript); details: ATCC 25922
Procedure, shortened: (§1)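 Log-phase bacteria were added to wells containing peptide in cation-adjusted Mueller Hinton broth at a final 5×10^5 to 1×10^6 CFU/milliliter. Plates then sat overnight at 37° C. Wells were scored visually for turbidity against a peptide-free control.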

Salmonella dublin (Lane) = test: as above
Procedure, shortened: as §1

[4] = test system: Staphylococcus epidermidis ATCC 12228; test: as above; details: ATCC 12228
Procedure, shortened: as §1

[5] = test system: Pseudomonas aeruginosa ATCC 27853; test: as above; details: ATCC 27853
Procedure, shortened: as §1

[6] = test system: Staphylococcus aureus ATCC 29213; test: MIC, NCCLS M7-A6 broth microdilution, cation-adjusted Mueller Hinton broth (Table 9, no superscript); details: ATCC 29213
Procedure, shortened: as §1

Compound | MIC C. albicans [1] | MIC P. acnes [2] | MIC E. coli [3] | MIC S. dublin (Salmonella dublin (Lane)) | MIC S. epidermidis [4] | MIC P. aeruginosa [5] | MIC S. aureus [6]
CCCCCCCCCC(=O)NCCCC[C@@H](NC(=O)[C@@H](CCCNC(=N)N)NC(=O)[C@@H](CCSC)NC(=O)[C@@H](Cc1ccccc1)NC(=O)[C@@H](CC(N)=O)NC(=O)[C@@H](CCCNC(=N)N)NC(=O)[C@@H](C)NC(=O)[C@H](NC(=O)[C@@H](CC(=O)O)NC(=O)[C@@H](CCCNC(=N)N)NC(=O)[C@@H](Cc1c[nH]c2ccccc12)NC(=O)[C@@H](CCCNC(=N)N)NC(=O)[C@@H](CO)NC(=O)[C@H](N)CCCNC(=N)N)C(C)C)C(N)=O [Peptide 199, H2N-rsrwrdvarnfmrk(Decanyl)-NH2] (H-[dR][dS][dR][dW][dR][dD][dV][dA][dR][dN][dF][dM][dR][dK](Decanoyl)-NH2) | 32e ug/mL | 8c ug/mL | 4 µg/mL (≈ 1.97 µM) | 8 µg/mL (≈ 3.94 µM) | 1 µg/mL (≈ 0.492 µM) | 4 µg/mL (≈ 1.97 µM) | 2 µg/mL (≈ 0.985 µM)
CCCCCCCCCCCC(=O)N[C@@H](CCCNC(=N)N)C(=O)N[C@@H](CO)C(=O)N[C@@H](CCCNC(=N)N)C(=O)N[C@@H](Cc1c[nH]c2ccccc12)C(=O)N[C@@H](CCCNC(=N)N)C(=O)N[C@@H](CC(=O)O)C(=O)N[C@H](C(=O)N[C@@H](C)C(=O)N[C@@H](CCCNC(=N)N)C(=O)N[C@@H](CC(N)=O)C(=O)N[C@@H](Cc1ccccc1)C(N)=O)C(C)C [Peptide 99, Lauryl-RSRWRDVARNF-NH2] (Lauroyl-RSRWRDVARNF-NH2) | 32e ug/mL | >64c ug/mL | 32 µg/mL (≈ 19.5 µM) | >64 µg/mL | 4 µg/mL (≈ 2.43 µM) | >64 µg/mL | 4 µg/mL (≈ 2.43 µM)
CCCCCCCCCCCC(=O)NCCNC(=O)[C@H](CCCNC(=N)N)NC(=O)[C@H](CCSC)NC(=O)[C@H](Cc1ccccc1)NC(=O)[C@H](CC(N)=O)NC(=O)[C@H](CCCNC(=N)N)NC(=O)[C@H](C)NC(=O)[C@@H](NC(=O)[C@H](CC(=O)O)NC(=O)[C@H](CCCNC(=N)N)NC(=O)[C@H](Cc1c[nH]c2ccccc12)NC(=O)[C@H](CCCNC(=N)N)NC(=O)[C@H](CO)NC(=O)[C@@H](N)CCCNC(=N)N)C(C)C [Peptide 176, H2N-RSRWRDVARNFMR-Ethylamidolauryl] (H-RSRWRDVARNFMR-{Ethylenediamine-Lauroyl}; C-terminus assumed) | 4e ug/mL | 64c ug/mL | 8 µg/mL (≈ 4.05 µM) | 16 µg/mL (≈ 8.1 µM) | 1 µg/mL (≈ 0.506 µM) | 32 µg/mL (≈ 16.2 µM) | 8 µg/mL (≈ 4.05 µM)
CCCCCCCCCCCC(=O)N[C@H](CCCNC(=N)N)C(=O)N[C@H](CO)C(=O)N[C@H](CCCNC(=N)N)C(=O)N[C@H](Cc1c[nH]c2ccccc12)C(=O)N[C@H](CCCNC(=N)N)C(=O)N[C@H](CC(=O)O)C(=O)N[C@@H](C(=O)N[C@H](C)C(=O)N[C@H](CCCNC(=N)N)C(=O)N[C@H](CC(=O)O)C(=O)N[C@H](Cc1ccccc1)C(=O)N[C@H](CCSC)C(=O)N[C@H](CCCNC(=N)N)C(N)=O)C(C)C [Peptide 249, Lauryl-rsrwrdvardfmr-NH2] (Lauroyl-[dR][dS][dR][dW][dR][dD][dV][dA][dR][dD][dF][dM][dR]-NH2) | 8e ug/mL | 8c ug/mL | 4 µg/mL (≈ 2.07 µM) | 4 µg/mL (≈ 2.07 µM) | 2 µg/mL (≈ 1.04 µM) | 8 µg/mL (≈ 4.14 µM) | 2 µg/mL (≈ 1.04 µM)
CCCCCCCCCCCC(=O)NCCCC[C@H](NC(=O)[C@H](CCCNC(=N)N)NC(=O)[C@H](CCSC)NC(=O)[C@H](Cc1ccccc1)NC(=O)[C@H](CC(N)=O)NC(=O)[C@H](CCCNC(=N)N)NC(=O)[C@H](C)NC(=O)[C@@H](NC(=O)[C@H](CC(=O)O)NC(=O)[C@H](CCCNC(=N)N)NC(=O)[C@H](Cc1c[nH]c2ccccc12)NC(=O)[C@H](CCCNC(=N)N)NC(=O)[C@H](CO)NC(=O)[C@@H](N)CCCNC(=N)N)C(C)C)C(N)=O [Peptide 186, H2N-RSRWRDVARNFMRK(Lauryl)-NH2] (H-RSRWRDVARNFMRK(Lauroyl)-NH2) | 16e ug/mL | 16c ug/mL | 4 µg/mL (≈ 1.94 µM) | 16 µg/mL (≈ 7.77 µM) | 1 µg/mL (≈ 0.486 µM) | 4 µg/mL (≈ 1.94 µM) | 4 µg/mL (≈ 1.94 µM)
CCCCCCCCCCCC(=O)N[C@@H](CCCNC(=N)N)C(=O)N[C@@H](CO)C(=O)N[C@@H](CCCNC(=N)N)C(=O)N[C@@H](Cc1c[nH]c2ccccc12)C(=O)N[C@@H](CCCNC(=N)N)C(=O)N[C@@H](CC(=O)O)C(=O)N[C@H](C(=O)N[C@@H](C)C(=O)N[C@@H](CCCNC(=N)N)C(=O)N[C@@H](CC(N)=O)C(N)=O)C(C)C [Peptide 100, Lauryl-RSRWRDVARN-NH2] (Lauroyl-RSRWRDVARN-NH2) | 32e ug/mL | >64c ug/mL | >64 µg/mL | >64 µg/mL | 16 µg/mL (≈ 10.7 µM) | >64 µg/mL | 8 µg/mL (≈ 5.34 µM)
CCCCCCCCCCCC(=O)N[C@H](CCCNC(=N)N)C(=O)N[C@H](CCCNC(=N)N)C(=O)N[C@H](CCCNC(=N)N)C(=O)N[C@H](Cc1c[nH]c2ccccc12)C(=O)N[C@H](CCCNC(=N)N)C(=O)N[C@H](CCCNC(=N)N)C(=O)N[C@@H](C(=O)N[C@H](C)C(=O)N[C@H](CCCNC(=N)N)C(=O)N[C@H](CCCNC(=N)N)C(=O)N[C@H](Cc1ccccc1)C(=O)N[C@H](CC(C)C)C(=O)N[C@H](CCCNC(=N)N)C(N)=O)C(C)C [Peptide 222, Lauryl-rrrwrrvarrflr-NH2] (Lauroyl-[dR][dR][dR][dW][dR][dR][dV][dA][dR][dR][dF][dL][dR]-NH2) | 2e ug/mL | >64c ug/mL | 16 µg/mL (≈ 7.75 µM) | >64 µg/mL | 1 µg/mL (≈ 0.484 µM) | 8 µg/mL (≈ 3.87 µM) | 4 µg/mL (≈ 1.94 µM)
CCCCCCCCCC(=O)NCCCC[C@H](NC(=O)[C@H](CCCNC(=N)N)NC(=O)[C@H](CC(C)C)NC(=O)[C@H](Cc1ccccc1)NC(=O)[C@H](CC(N)=O)NC(=O)[C@H](CCCNC(=N)N)NC(=O)[C@H](C)NC(=O)[C@@H](NC(=O)[C@H](CC(=O)O)NC(=O)[C@H](CCCNC(=N)N)NC(=O)[C@H](Cc1c[nH]c2ccccc12)NC(=O)[C@H](CCCNC(=N)N)NC(=O)[C@H](CO)NC(=O)[C@@H](N)CCCNC(=N)N)C(C)C)C(N)=O [Peptide 180, H2N-RSRWRDVARNFLRK(Decanyl)-NH2] (H-RSRWRDVARNFLRK(Decanoyl)-NH2) | 16e ug/mL | 64c ug/mL | 4 µg/mL (≈ 1.99 µM) | 16 µg/mL (≈ 7.95 µM) | 1 µg/mL (≈ 0.497 µM) | 4 µg/mL (≈ 1.99 µM) | 8 µg/mL (≈ 3.97 µM)
CCCCCCCCCCCC(=O)N[C@@H](CCCNC(=N)N)C(=O)N[C@@H](CO)C(=O)N[C@@H](CCCNC(=N)N)C(=O)N[C@@H](Cc1c[nH]c2ccccc12)C(=O)N[C@@H](CCCNC(=N)N)C(=O)N[C@@H](CC(=O)O)C(=O)N[C@H](C(=O)N[C@@H](C)C(=O)N[C@@H](CCCNC(=N)N)C(=O)N[C@@H](CC(N)=O)C(=O)N[C@@H](Cc1ccccc1)C(=O)N[C@@H](C)C(=O)N[C@@H](CCCNC(=N)N)C(N)=O)C(C)C [Peptide 97, Lauryl-RSRWRDVARNFAR-NH2] (Lauroyl-RSRWRDVARNFAR-NH2) | 8e ug/mL | 64c ug/mL | 32 µg/mL (≈ 17.1 µM) | 32 µg/mL (≈ 17.1 µM) | 2 µg/mL (≈ 1.07 µM) | 32 µg/mL (≈ 17.1 µM) | 16 µg/mL (≈ 8.55 µM)
